Results on 17 compounds are retold here after US7109193B2, “Tricyclic diazepines tocolytic oxytocin receptor antagonists” (Wyeth, priority 2001, dated 2006).

The assay concerns the target T1, human oxytocin receptor (Homo sapiens, UniProt P30559).
T1 construct: host or cells: CHO cells (pcDNA3.1 vector)
T1 sequence (P30559 1-389): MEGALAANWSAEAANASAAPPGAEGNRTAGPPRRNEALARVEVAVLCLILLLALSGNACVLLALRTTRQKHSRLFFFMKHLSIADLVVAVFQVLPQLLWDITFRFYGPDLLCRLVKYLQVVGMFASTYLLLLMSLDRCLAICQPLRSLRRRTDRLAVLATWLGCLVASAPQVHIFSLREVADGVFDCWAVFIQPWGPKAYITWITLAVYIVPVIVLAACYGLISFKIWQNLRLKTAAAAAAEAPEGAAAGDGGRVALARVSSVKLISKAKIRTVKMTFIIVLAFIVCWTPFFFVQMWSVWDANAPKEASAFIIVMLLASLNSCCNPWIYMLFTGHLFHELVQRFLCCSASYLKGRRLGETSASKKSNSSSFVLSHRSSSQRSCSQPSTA
Description: Oxytocin binding in Chinese Hamster Ovary cell membranes expressing human oxytocin receptors. Particulars: 100 nM, CHO cell membranes, [3H]oxytocin, values without parentheses; for inhibition at 0.1 µM: read-out: OT % inhibition @ 100% nM. How it is done: Oxytocin Binding in Chinese Hamster Ovary Cell Membranes Expressing Human Oxytocin Receptors
The trypsin is removed by aspiration and the cells dislodged by tapping. Cell Culture medium (e.g. 30 mL for 1:30 split) is immediately added and mixed well to inactivate trypsin. 1 mL of detached cells is added to new culture flasks containing fresh Cell Culture medium (e.g. into 25 mL per T-150 flask), and mixed gently. The cells are incubated at 37° C. in 5% CO2. The medium is changed at 3 to 4 days interval (or as appropriate). […] All steps are done under sterile conditions. B. Membrane Preparation: The cells are washed twice gently with Hank's Balanced Salt solution (e.g., use 10 mL per T-150 flask). […] The contents are transferred to centrifuge tubes (50 mL size) kept in ice bath. All subsequent steps are done at 4° C. The tubes are centrifuged at 300×g for 15 min (1380 rpm on SORVAL, Model RT6000D, using rotor for 50 mL tubes). The supernatant is discarded and the cells suspended in homogenizing buffer (10 mM Tris-HCl containing 0.25 M sucrose and 1 mM EDTA, pH 7.4) ensuring that the volume of the buffer is about ten times the volume of the cell pellet. The cells are pooled into a centrifuge tube (50 mL) and homogenized with a Polytron at setting 6 for 10 sec. The homogenate is transferred into a Potter-Elvjehm homogenizer and homogenized with 3 strokes. The homogenate is centrifuged at 1500×g for 10 min at 4° C. (3100 rpm using SORVAL, model RT6000D, using rotor for 50 mL tubes). The pellet is discarded. The supernatant is centrifuged at 100,000×g for 60 min. at 4° C. (Beckman L8-80M ultracentrifuge; spin at 37,500 rpm with rotor type 70 Ti for 50 mL tubes; 38,000 rpm with type 80Ti for 15 mL tubes; or 35,800 rpm with rotor type 45Ti). The supernantant is discarded and the pellet suspended in 3 to 4 mL of Tris buffer (50 mM TRIS-HCl, pH 7.4). The protein content is estimated by the Bradford or Lowry method. The volume of the membrane suspension is adjusted with the membrane buffer (50 mM Tris-HCl containing 0.1% BSA and 0.1 mM PMSF) to give 3.0 mg/mL (or as appropriate) of protein. The membranes are aliquoted and stored at −70° C. C. Radioligand Binding Assay: In wells of a 96-well format microtiter plate, is added 90, 110 or 130 μL (to make up a final volume of 200 μL) of assay buffer containing 50 mM of Tris-HCl (pH 7.4), […], 1 mg % aprotinin, 1 mg % leupeptin, 2 mg % 1,10-phenanthroline, 10 mg % trypsin inhibitor, and 0.1 mM PMSF. The inhibitors are added on the day of the experiment. The components are mixed at room temperature, and then kept in ice bath following adjustment of the pH to 7.4. […] For oxytocin and other peptide ligands, 20 μL of 50% DMSO is added and the assay buffer volume is adjusted accordingly. To each well is added 50 μL of frozen membrane suspension thawed immediately prior to use and diluted in assay buffer to the required concentration (equivalent to 25 to 50 μg of protein/well as needed). 20 μL of 8 nM [^3H]oxytocin in the assay buffer, prepared just before use is added and incubated at room temperature for 60 min. shaking the plate on a mechanical shaker for the first 15 min. The incubation is stopped by rapid filtration of the plate contents followed by washing with ice-cold buffer (50 mM Tris-HCl, pH 7.4) using a cell harvester (Tomtek and Printed filtermat-B filter paper). The filter paper is thoroughly dried (7–12 min. in a microwave oven) and impregnated with MeltiLex B/H melt-on scintillation wax sheets and the radioactivity counted in a betaplate scintillation counter.
Binding data is either reported as percent inhibition at a certain concentration or if an IC50 was calculated, as a nanomolar concentration.

Molecules are shown by their SMILES.

In the case of `COc1cc2c(cc1OC)N(C(=O)c1ccc(-c3ccccc3C(F)(F)F)c(C)c1)Cc1ccc(C(=O)N3CCC(=O)CC3)n1C2` [Example 14, 7,8-Dimethoxy-10-{[2-methyl-2′-(trifluoromethyl)-[1,1′-biphenyl]-4-yl]carbonyl}-[(10,11-dihydro-5H-pyrrolo[2,1-c][1,4]benzodiazepin-3-yl)carbonyl]-4-piperidinone], the “OT % inhibition @ 100% nM” value was 9%.

The term inhibition denotes the change of the read-out against control, counted positive when it falls. For the compound `COc1cccc(-c2ccc(C(=O)N3Cc4ccc(C(=O)NCCCn5ccnc5)n4Cc4ccccc43)cc2OC)c1` [Example 133, 10-[(2,3′-Dimethoxy[1,1′-biphenyl]4-yl)carbonyl]-N-[3-(1H-imidazol-1-yl)propyl]-10,11-dihydro-5H-pyrrolo[2,1-c][1,4]benzodiazepine-3-carboxamide], the inhibition at 0.1 µM stood at 46%.

Regarding `COc1ccccc1-c1ccc(C(=O)N2Cc3ccc(C(=O)N4CCC(N5CCCCC5)CC4)n3Cc3ccccc32)cc1OC` [Example 119, {10-[(2,2′-Dimethoxy-[1,1′-biphenyl]-4-yl)carbonyl]-10,11-dihydro-5H-pyrrolo[2,1-c][1,4]benzodiazepin-3-yl}[4-(1-piperidinyl)-1-piperidinyl]methanone], the inhibition at 0.1 µM is 58%.

Regarding `COc1cccc(-c2ccc(C(=O)N3Cc4ccc(C(=O)N5CCC[C@H]5CN5CCCC5)n4Cc4ccccc43)cc2OC)c1` [Example 270, {10-[(2,3′-Dimethoxy[1,1′-biphenyl]-4-yl)carbonyl]-10,11-dihydro-5H-pyrrolo[2,1-c][1,4]benzodiazepin-3-yl}[(2S)-2-(1-pyrrolidinylmethyl)pyrrolidinyl]methanone], the “OT % inhibition @ 100% nM” value worked out at 95%.

`Cc1ccccc1-c1ccc(C(=O)N2Cc3ccc(C(=O)N4CCC(N5CCCCC5)CC4)n3Cc3ccccc32)cc1C` [Example 113, {10-[(2-Methyl-2′-methyl[1,1′-biphenyl]-4-yl)carbonyl]-10,11-dihydro-5H-pyrrolo[2,1-c][1,4]benzodiazepin-3-yl}[4-(1-piperidinyl)-1-piperidinyl]methanone]: the inhibition at 0.1 µM is 97%.

As to `COc1cccc(-c2ccc(C(=O)N3Cc4ccc(C(=O)N5CCC(N6CCCC6)CC5)n4Cc4ccccc43)cc2C)c1` [Example 139, {10-[(3′-Methoxy-2-methyl[1,1′-biphenyl]-4-yl)carbonyl]-10,11-dihydro-5H-pyrrolo[2,1-c][1,4]benzodiazepin-3-yl}[4-(1-pyrrolidinyl)-1-piperidinyl]methanone], the inhibition at 0.1 µM was determined as 76%.

Regarding `COc1cc(C(=O)N2Cc3ccc(C(=O)N4CCC(N5CCCCC5)CC4)n3Cc3ccccc32)ccc1-c1cccc2ccccc12` [Example 118, {10-[3-Methoxy-4-(1-naphthyl)-benzoyl]-10,11-dihydro-5H-pyrrolo[2,1-c][1,4]benzodiazepin-3-yl}[4-(1-piperidinyl)-1-piperidinyl]methanone], the inhibition at 0.1 µM amounted to 54%.

Turning to `O=C(c1ccc2n1Cc1ccccc1N(C(=O)c1ccc(-c3cccc4ccccc34)cc1Cl)C2)N1CCC(N2CCCC2)CC1` [Example 147, {10-[2-Chloro-4-(1-naphthyl)benzoyl]-10,11-dihydro-5H-pyrrolo[2,1-c][1,4]benzodiazepin-3-yl}[4-(1-pyrrolidinyl)-1-piperidinyl]methanone], the inhibition at 0.1 µM came out at 33%.

For the compound `COc1cc(C(=O)N2Cc3ccc(C(=O)N4CC[C@@H](N(C)C)C4)n3Cc3ccccc32)ccc1-n1c(C)ccc1C` [Example 322, [(3R)-3-(Dimethylamino)pyrrolidinyl]{10-[4-(2,5-dimethyl-1H-pyrrol-1-yl)-3-methoxybenzoyl]-10,11-dihydro-5H-pyrrolo[2,1-c][1,4]benzodiazepin-3-yl}methanone], the “OT % inhibition @ 100% nM” value came to 66%.

With `COc1cc(C(=O)N2Cc3ccc(C(=O)N4CCC(N5CCCC5)CC4)n3Cc3ccccc32)ccc1-c1cccc2ccccc12` [Example 144, {10-[3-Methoxy-4-(1-naphthyl)benzoyl]-10,11-dihydro-5H-pyrrolo[2,1-c][1,4]benzodiazepin-3-yl}[4-(1-pyrrolidinyl)-1-piperidinyl]methanone], the inhibition at 0.1 µM amounted to 53%.

`COc1ccccc1-c1ccc(C(=O)N2Cc3ccc(C(=O)N4CCC[C@H]4CN4CCCC4)n3Cc3ccccc32)cc1C` [Example 259, {10-[(2′-Methoxy-2-methyl[1,1′-biphenyl]-4-yl)carbonyl]-10,11-dihydro-5H-pyrrolo[2,1-c][1,4]benzodiazepin-3-yl}[(2S)-2-(1-pyrrolidinylmethyl)pyrrolidinyl]methanone]: the “OT % inhibition @ 100% nM” value worked out at 97%.

Turning to `Cc1ccccc1-c1ccc(C(=O)N2Cc3ccc(C(=O)NCCN4CCCCC4)n3Cc3ccccc32)cc1` [Example 153, 10-[(2′-Methyl[1,1′-biphenyl]-4-yl)carbonyl]-N-[2-(1-piperidinyl)ethyl]-10,11-dihydro-5H-pyrrolo[2,1-c][1,4]benzodiazepine-3-carboxamide], the inhibition at 0.1 µM amounted to 60%.

As for `Cc1cc(C(=O)N2Cc3ccc(C(=O)NCCCn4ccnc4)n3Cc3ccccc32)ccc1-c1ccccc1C(F)(F)F` [Example 135, N-[3-(1H-Imidazol-1-yl)propyl]-10-{[2-methyl-2′-(trifluoromethyl)[1,1′-biphenyl]-4-yl]carbonyl}-10,11-dihydro-5H-pyrrolo[2,1-c][1,4]benzodiazepine-3-carboxamide], the inhibition at 0.1 µM was 24%.

`COc1ccccc1-c1ccc(C(=O)N2Cc3ccc(C(=O)N4CCC[C@H]4CN4CCCC4)n3Cc3ccccc32)cc1OC` [Example 269, {10-[(2,2′-Dimethoxy[1,1′-biphenyl]-4-yl)carbonyl]-10,11-dihydro-5H-pyrrolo[2,1-c][1,4]benzodiazepin-3-yl}[(2S)-2-(1-pyrrolidinylmethyl)pyrrolidinyl]methanone]: the “OT % inhibition @ 100% nM” value came to 88%.

With `O=C(c1ccc(-c2cccc3ccccc23)cc1Cl)N1Cc2ccc(C(=O)N3CCC[C@H]3CN3CCCC3)n2Cc2ccccc21` [Example 261, {10-[2-Chloro-4-(1-naphthyl)benzoyl]-10,11-dihydro-5H-pyrrolo[2,1-c][1,4]benzodiazepin-3-yl}[(2S)-2-(1-pyrrolidinylmethyl)pyrrolidinyl]methanone], the “OT % inhibition @ 100% nM” value is 52%.

With `COc1ccccc1-c1ccc(C(=O)N2Cc3ccc(C(=O)NCCCn4ccnc4)n3Cc3ccccc32)cc1OC` [Example 132, 10-[(2,2′-Dimethoxy[1,1′-biphenyl]-4-yl)carbonyl]-N-[3-(1H-imidazol-1-yl)propyl]-10,11-dihydro-5H-pyrrolo[2,1-c][1,4]benzodiazepine-3-carboxamide], the inhibition at 0.1 µM amounted to 31%.

Regarding `Cc1ccccc1-c1ccc(C(=O)N2Cc3ccc(C(=O)N4CCC(N5CCCC5)CC4)n3Cc3ccccc32)cc1` [Example 141, {10-[(2′-Methyl[1,1′-biphenyl]-4-yl)carbonyl]-10,11-dihydro-5H-pyrrolo[2,1-c][1,4]benzodiazepin-3-yl}[4-(1-pyrrolidinyl)-1-piperidinyl]methanone], the inhibition at 0.1 µM is -6%.
